# Measured values published in patent publication US20260041683A1, “Compounds with Anti-Acinetobacter Baumannii Activity” (University of Kentucky Research Foundation, priority 2022, published 2026).
# Like-named read-outs stand apart in the source and are kept apart here.
# Tests used:
# K. pneumoniae ATCC 27736 = experiment: MIC determination; type: cell-based; details: Klebsiella pneumoniae, ATCC27736; Table 3; read-out: MIC K. pneumoniae ATCC 27736
# M. smegmatis = experiment: MIC determination; type: cell-based, Mycobacterium smegmatis; details: Mycolicibacterium smegmatis; Table 4
# P. aeruginosa ATCC 27853 = experiment: MIC determination; type: cell-based; details: Pseudomonas aeruginosa, ATCC27853; Table 3; read-out: MIC P. aeruginosa ATCC 27853
# E. cloacae ATCC 13047 = experiment: MIC determination; type: cell-based; details: Enterobacter cloacae, ATCC13047; Table 4; read-out: MIC E. cloacae ATCC 13047
# [1] = system: S. epidermidis ATCC 12228; experiment: MIC determination; type: cell-based; details: Staphylococcus epidermidis, ATCC12228; Table 4; read-out: MIC S. epidermidis ATCC 12228
# E. coli ATCC BAA 2469 = experiment: MIC determination; type: cell-based; details: Escherichia coli, BAA2469; Table 3
# S. aureus ATCC 25923 = experiment: MIC determination; type: cell-based; details: Staphylococcus aureus, ATCC25923; Table 4; read-out: MIC S. Aureus ATCC 25923
# Y. pestis CO92 = experiment: microbe, parasite or virus in culture; type: cell-based; details: Yersinia pestis, CO92, read-out: MIC Y. pestis CO92
# [2] = system: K. pneumoniae ATCC BAA 1705; experiment: MIC determination; type: cell-based; details: Klebsiella pneumoniae, BAA1705; Table 3
# Ab ATCC 19606 (strain I) = experiment: MIC determination (double dilution, Mueller-Hinton broth); type: cell-based, Acinetobacter baumannii; details: Acinetobacter baumannii, ATCC19606; Table 1; control strain; read-out: MIC Ab ATCC 19606
# [3] = system: Ab ATCC BAA1605 (strain J, multidrug-resistant); experiment: MIC determination; type: cell-based; details: Acinetobacter baumannii
# Summary of the method: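 Broth double-dilution MIC in Mueller-Hinton broth, 96-well plates, at least in duplicate. Inoculum: colonies grown overnight at 37 °C on MH plates, suspended to OD600 ~0.5 and diluted 1:1000 into serially doubly diluted compound.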
# S. enterica ATCC 14028 = experiment: MIC determination; type: cell-based; details: Salmonella enterica, ATCC14028; Table 4; read-out: MIC S. enterica ATCC 14028
# B. anthracis Sterne F32 = experiment: microbe, parasite or virus in culture; type: cell-based; details: Bacillus anthracis, STERNEF32, read-out: MIC B. anthracis Sterne F32
# [4] = system: all 41 multidrug-resistant Ab strains (#273-313) from the CDC and FDA AR Bank; experiment: MIC determination, panel statements; type: cell-based; details: Acinetobacter baumannii; Table 2 note; almost all of the 41 strains; read-out: MIC values against almost all strains
# Method: All bacterial strains listed above were stored at −80° C. All strains were streaked on Mueller-Hinton (MH) plates and allowed to grow at 37° C. overnight. Enough colonies were scraped from the plate and suspended in MH broth with vortexing to reach an attenuance at 600 nm (OD600) of ˜0.5. The resulting culture was diluted 1:1000 and added to the prepared serially doubly diluted compound solutions in 96-well plates. For M. smegmatis, a 1:100 dilution of the bacteria was done in MH. All MIC values were determined using 96-well plates with low evaporation seals at least in duplicate. For each row, one well was reserved for sterile control (which consisted of 200 μL of MH medium) and another well was reserved for growth control (which consisted of 100 μL of MH medium seeded with 100 μL of bacterial culture).
# Then all 46 compounds were tested against a broad panel of all 41 Ab strains from the CDC and FDA Antibiotic Resistance (AR) Isolate Bank (Table 2; data shown for 2 representative compounds), which were all highly multidrug-resistant strains, including those resistant to colistin. […] The activity of the monohydrazides was not dependent on the extent (number of resistance mutations) or severity (antibiotic MIC) of resistance. All conclusions made from Table 1 remained valid for all compounds against these 41 additional Ab strains. […]
structure (smiles),measurement,setting,value
"NC[C@H]1O[C@H](O[C@H]2[C@H](O)[C@@H](O[C@H]3O[C@H](CO)[C@@H](O)[C@H](N)[C@H]3O)[C@H](N)C[C@@H]2N)[C@H](O)[C@@H](O)[C@@H]1O [KAN, kanamycin, reference compound]",MIC,K. pneumoniae ATCC 27736,4 µg/mL
same,MIC,M. smegmatis,≤ 0.03 µg/mL
same,MIC,P. aeruginosa ATCC 27853,> 128 µg/mL
same,MIC,E. cloacae ATCC 13047,1.25 µg/mL
same,MIC,[1],0.63 µg/mL
same,MIC,E. coli ATCC BAA 2469,> 128 µg/mL
same,MIC,S. aureus ATCC 25923,0.63 µg/mL
same,MIC,Y. pestis CO92,2.5 µg/mL
same,MIC,[2],> 128 µg/mL
same,MIC,Ab ATCC 19606 (strain I),5 µg/mL
same,MIC,"[3]; Table 1, multidrug-resistant strain, read-out: MIC Ab ATCC BAA 1605",10 µg/mL
same,MIC,"[3]; Table 3, positive control strain, read-out: MIC A. Baumannii ATCC BAA 1605",32 µg/mL
same,MIC,S. enterica ATCC 14028,2.5 µg/mL
same,MIC,B. anthracis Sterne F32,> 160 µg/mL
same,MIC,[4],> 10 µg/mL
